Source: patent US12435044B2, “Pyridazinone herbicides and pyridazinone intermediates used to prepare a herbicide” (FMC Corporation, priority 2018, dated 2025)

How the values were obtained:
Assay in all cases: Test C pre-/postemergence greenhouse test
Type in all cases: in vivo
Settings in all cases: scale 0 to 100
[1] = tested on: blackgrass (Alopecurus myosuroides)
Summary of the method: (§1)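 Test chemicals in a non-phytotoxic solvent mixture with surfactant; preemergence on seeds sown in silt loam, postemergence on plants 2–18 cm tall (1- to 4-leaf stage) in peat/vermiculite medium. Greenhouse for 13–21 d, then visual rating against untreated controls, 0 (no effect) to 100 (complete control).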

[2] = tested on: corn (Zea mays)
Summary of the method: as §1

[3] = tested on: crabgrass, large (Digitaria sanguinalis)
Summary of the method: as §1

[4] = tested on: galium (catchweed bedstraw, Galium aparine)
Summary of the method: as §1

[5] = tested on: morningglory (Ipomoea coccinea)
Summary of the method: as §1

[6] = tested on: nutsedge, yellow (Cyperus esculentus)
Summary of the method: as §1

[7] = tested on: oilseed rape (Brassica napus)
Summary of the method: as §1

[8] = tested on: pigweed, palmer (Amaranthus palmeri)
Summary of the method: as §1

[9] = tested on: poinsettia, wild (Euphorbia heterophylla)
Summary of the method: as §1

[10] = tested on: ragweed (common ragweed, Ambrosia elatior)
Summary of the method: as §1

[11] = tested on: ryegrass, Italian (Lolium multiflorum)
Summary of the method: as §1

[12] = tested on: soybean (Glycine max)
Summary of the method: as §1

[13] = tested on: velvetleaf (Abutilon theophrasti)
Summary of the method: as §1

Cc1ccc2ccc(Cl)cc2c1-c1c(O)c(Cl)nn(C)c1=O [Cpd. No. 22]
Plant response rating, Blackgrass ([1]; Postemergence, 16 g ai/ha): 70 | Plant response rating, Blackgrass ([1]; Postemergence, 31 g ai/ha): 85 | Plant response rating, Blackgrass ([1]; Postemergence, 62 g ai/ha): 90 | Plant response rating, Blackgrass ([1]; Postemergence, 125 g ai/ha): 100 | Plant response rating, Blackgrass ([1]; Preemergence, 31 g ai/ha): 25 | Plant response rating, Blackgrass ([1]; Preemergence, 61 g ai/ha): 5 | Plant response rating, Blackgrass ([1]; Preemergence, 62 g ai/ha): 30 | Plant response rating, Blackgrass ([1]; Preemergence, 125 g ai/ha): 85 | Plant response rating, Corn ([2]; Postemergence, 16 g ai/ha): 0 | Plant response rating, Corn ([2]; Postemergence, 31 g ai/ha): 20 | Plant response rating, Corn ([2]; Postemergence, 62 g ai/ha): 35 | Plant response rating, Corn ([2]; Postemergence, 125 g ai/ha): 25 | Plant response rating, Corn ([2]; Preemergence, 31 g ai/ha): 10 | Plant response rating, Corn ([2]; Preemergence, 61 g ai/ha): 5 | Plant response rating, Corn ([2]; Preemergence, 62 g ai/ha): 5 | Plant response rating, Corn ([2]; Preemergence, 125 g ai/ha): 30 | Plant response rating, Crabgrass, Large ([3]; Postemergence, 16 g ai/ha): 10 | Plant response rating, Crabgrass, Large ([3]; Postemergence, 31 g ai/ha): 25 | Plant response rating, Crabgrass, Large ([3]; Postemergence, 62 g ai/ha): 15 | Plant response rating, Crabgrass, Large ([3]; Postemergence, 125 g ai/ha): 60 | Plant response rating, Crabgrass, Large ([3]; Preemergence, 31 g ai/ha): 25 | Plant response rating, Crabgrass, Large ([3]; Preemergence, 61 g ai/ha): 5 | Plant response rating, Crabgrass, Large ([3]; Preemergence, 62 g ai/ha): 75 | Plant response rating, Crabgrass, Large ([3]; Preemergence, 125 g ai/ha): 85 | Plant response rating, Galium ([4]; Postemergence, 16 g ai/ha): 85 | Plant response rating, Galium ([4]; Postemergence, 31 g ai/ha): 85 | Plant response rating, Galium ([4]; Postemergence, 62 g ai/ha): 95 | Plant response rating, Galium ([4]; Postemergence, 125 g ai/ha): 98 | Plant response rating, Galium ([4]; Preemergence, 31 g ai/ha): 50 | Plant response rating, Galium ([4]; Preemergence, 61 g ai/ha): 20 | Plant response rating, Galium ([4]; Preemergence, 62 g ai/ha): 70 | Plant response rating, Galium ([4]; Preemergence, 125 g ai/ha): 95 | Plant response rating, Morningglory ([5]; Postemergence, 16 g ai/ha): 85 | Plant response rating, Morningglory ([5]; Postemergence, 31 g ai/ha): 100 | Plant response rating, Morningglory ([5]; Postemergence, 62 g ai/ha): 100 | Plant response rating, Morningglory ([5]; Postemergence, 125 g ai/ha): 100 | Plant response rating, Morningglory ([5]; Preemergence, 31 g ai/ha): 35 | Plant response rating, Morningglory ([5]; Preemergence, 61 g ai/ha): 25 | Plant response rating, Morningglory ([5]; Preemergence, 125 g ai/ha): 85 | Plant response rating, Nutsedge, Yellow ([6]; Postemergence, 16 g ai/ha): 10 | Plant response rating, Nutsedge, Yellow ([6]; Postemergence, 31 g ai/ha): 35 | Plant response rating, Nutsedge, Yellow ([6]; Postemergence, 62 g ai/ha): 90 | Plant response rating, Nutsedge, Yellow ([6]; Postemergence, 125 g ai/ha): 85 | Plant response rating, Nutsedge, Yellow ([6]; Preemergence, 31 g ai/ha): 50 | Plant response rating, Nutsedge, Yellow ([6]; Preemergence, 61 g ai/ha): 25 | Plant response rating, Nutsedge, Yellow ([6]; Preemergence, 62 g ai/ha): 75 | Plant response rating, Nutsedge, Yellow ([6]; Preemergence, 125 g ai/ha): 95 | Plant response rating, Oilseed Rape ([7]; Postemergence, 16 g ai/ha): 85 | Plant response rating, Oilseed Rape ([7]; Postemergence, 31 g ai/ha): 90 | Plant response rating, Oilseed Rape ([7]; Postemergence, 62 g ai/ha): 95 | Plant response rating, Oilseed Rape ([7]; Postemergence, 125 g ai/ha): 100 | Plant response rating, Oilseed Rape ([7]; Preemergence, 31 g ai/ha): 0 | Plant response rating, Oilseed Rape ([7]; Preemergence, 61 g ai/ha): 0 | Plant response rating, Oilseed Rape ([7]; Preemergence, 62 g ai/ha): 100 | Plant response rating, Oilseed Rape ([7]; Preemergence, 125 g ai/ha): 100 | Plant response rating, Pigweed, Palmer ([8]; Postemergence, 16 g ai/ha): 50 | Plant response rating, Pigweed, Palmer ([8]; Postemergence, 31 g ai/ha): 70 | Plant response rating, Pigweed, Palmer ([8]; Postemergence, 62 g ai/ha): 70 | Plant response rating, Pigweed, Palmer ([8]; Postemergence, 125 g ai/ha): 75 | Plant response rating, Pigweed, Palmer ([8]; Preemergence, 31 g ai/ha): 65 | Plant response rating, Pigweed, Palmer ([8]; Preemergence, 61 g ai/ha): 40 | Plant response rating, Pigweed, Palmer ([8]; Preemergence, 62 g ai/ha): 75 | Plant response rating, Pigweed, Palmer ([8]; Preemergence, 125 g ai/ha): 100 | Plant response rating, Poinsettia, Wild ([9]; Postemergence, 16 g ai/ha): 25 | Plant response rating, Poinsettia, Wild ([9]; Postemergence, 31 g ai/ha): 25 | Plant response rating, Poinsettia, Wild ([9]; Postemergence, 62 g ai/ha): 40 | Plant response rating, Poinsettia, Wild ([9]; Postemergence, 125 g ai/ha): 35 | Plant response rating, Poinsettia, Wild ([9]; Preemergence, 31 g ai/ha): 5 | Plant response rating, Poinsettia, Wild ([9]; Preemergence, 61 g ai/ha): 5 | Plant response rating, Poinsettia, Wild ([9]; Preemergence, 62 g ai/ha): 10 | Plant response rating, Poinsettia, Wild ([9]; Preemergence, 125 g ai/ha): 35 | Plant response rating, Ragweed ([10]; Postemergence, 16 g ai/ha): 90 | Plant response rating, Ragweed ([10]; Postemergence, 31 g ai/ha): 95 | Plant response rating, Ragweed ([10]; Postemergence, 62 g ai/ha): 100 | Plant response rating, Ragweed ([10]; Postemergence, 125 g ai/ha): 100 | Plant response rating, Ragweed ([10]; Preemergence, 31 g ai/ha): 60 | Plant response rating, Ragweed ([10]; Preemergence, 61 g ai/ha): 60 | Plant response rating, Ragweed ([10]; Preemergence, 62 g ai/ha): 90 | Plant response rating, Ragweed ([10]; Preemergence, 125 g ai/ha): 100 | Plant response rating, Ryegrass, Italian ([11]; Postemergence, 16 g ai/ha): 70 | Plant response rating, Ryegrass, Italian ([11]; Postemergence, 31 g ai/ha): 85 | Plant response rating, Ryegrass, Italian ([11]; Postemergence, 62 g ai/ha): 95 | Plant response rating, Ryegrass, Italian ([11]; Postemergence, 125 g ai/ha): 100 | Plant response rating, Ryegrass, Italian ([11]; Preemergence, 31 g ai/ha): 25 | Plant response rating, Ryegrass, Italian ([11]; Preemergence, 61 g ai/ha): 5 | Plant response rating, Ryegrass, Italian ([11]; Preemergence, 62 g ai/ha): 98 | Plant response rating, Ryegrass, Italian ([11]; Preemergence, 125 g ai/ha): 90 | Plant response rating, Soybean ([12]; Postemergence, 16 g ai/ha): 5 | Plant response rating, Soybean ([12]; Postemergence, 31 g ai/ha): 10 | Plant response rating, Soybean ([12]; Postemergence, 62 g ai/ha): 20 | Plant response rating, Soybean ([12]; Postemergence, 125 g ai/ha): 25 | Plant response rating, Soybean ([12]; Preemergence, 31 g ai/ha): 5 | Plant response rating, Soybean ([12]; Preemergence, 61 g ai/ha): 0 | Plant response rating, Soybean ([12]; Preemergence, 62 g ai/ha): 0 | Plant response rating, Soybean ([12]; Preemergence, 125 g ai/ha): 30 | Plant response rating, Velvetleaf ([13]; Postemergence, 16 g ai/ha): 55 | Plant response rating, Velvetleaf ([13]; Postemergence, 31 g ai/ha): 60 | Plant response rating, Velvetleaf ([13]; Postemergence, 62 g ai/ha): 80 | Plant response rating, Velvetleaf ([13]; Postemergence, 125 g ai/ha): 85 | Plant response rating, Velvetleaf ([13]; Preemergence, 31 g ai/ha): 60 | Plant response rating, Velvetleaf ([13]; Preemergence, 61 g ai/ha): 10 | Plant response rating, Velvetleaf ([13]; Preemergence, 62 g ai/ha): 90 | Plant response rating, Velvetleaf ([13]; Preemergence, 125 g ai/ha): 80
